Laboratory results: PubChem BioAssay AID504416 (Johns Hopkins Ion Channel Center, 2011)
The source made the active and inactive calls.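 How the source made its calls: active means raises or lowers thallium flux through KCNQ4 potassium channels at some tested dose, with a fitted dose response curve; inactive means no effect at any dose or no curve.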

Molecular target: Potassium voltage-gated channel subfamily KQT member 4 (Homo sapiens) (UniProt P56696)
Assay: KCNQ4 thallium flux concentration-response – KCNQ4-expressing cells, selectivity assay for KCNQ2 activator project, dose response (AID 504416)
Conditions: FluxOR thallium flux fluorescence

Potassium voltage-gated channel subfamily KQT member 4 (Homo sapiens), sequence (P56696 whole entry, looked up): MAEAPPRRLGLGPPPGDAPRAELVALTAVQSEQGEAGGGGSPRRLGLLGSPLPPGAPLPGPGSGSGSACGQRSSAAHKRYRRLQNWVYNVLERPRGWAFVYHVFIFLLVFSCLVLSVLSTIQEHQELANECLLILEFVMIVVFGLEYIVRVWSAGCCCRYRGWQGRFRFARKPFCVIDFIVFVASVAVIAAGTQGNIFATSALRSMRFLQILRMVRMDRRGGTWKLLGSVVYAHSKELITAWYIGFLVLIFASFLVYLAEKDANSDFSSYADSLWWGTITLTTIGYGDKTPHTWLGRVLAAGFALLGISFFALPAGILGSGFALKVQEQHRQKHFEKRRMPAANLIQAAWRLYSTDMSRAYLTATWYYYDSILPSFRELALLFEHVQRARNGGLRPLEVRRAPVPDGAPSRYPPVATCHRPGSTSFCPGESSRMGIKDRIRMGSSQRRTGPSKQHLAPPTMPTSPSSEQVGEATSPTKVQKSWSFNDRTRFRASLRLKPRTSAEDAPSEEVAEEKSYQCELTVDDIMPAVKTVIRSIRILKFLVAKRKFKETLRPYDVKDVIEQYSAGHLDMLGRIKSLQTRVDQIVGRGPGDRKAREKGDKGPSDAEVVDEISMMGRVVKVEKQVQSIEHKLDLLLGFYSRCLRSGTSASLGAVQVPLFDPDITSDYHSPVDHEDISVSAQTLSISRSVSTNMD

Cc1cccc(C)c1NC(=O)C1CC2CCC1C2 (configuration not stated)
potentiation (at 30 µM (top of the series)): inactive

Cc1cc(C)c(NC(=O)C2CC3CCC2C3)c(C)c1 (configuration not stated)
EC50: 2.4 µM
